# Data: patent publication US9375013B2, “Herbicidal composition” (ISHIHARA SANGYO KAISHA, LTD., priority 2013, dated 2016)
# Experiments:
# Type in all cases: in vivo
# [1] = tested on: summergrass (Digitaria ciliaris (Retz.) Koeler); experiment: Test Example 1: pot soil treatment, growth inhibition of summergrass; details: dose 10 g/ha, 14th day after treatment, read-out: Growth inhibition rate (%) of summergrass, Measured value
# Method: Upland field soil was put into a 1/160,000 ha pot, and seeds of summergrass (Digitaria ciliaris (Retz.) Koeler) were sown. On the next day, predetermined amounts of flazasulfuron and imazapic were diluted with water (in an amount corresponding to 300 L/ha), and applied for soil treatment by a small sprayer. On the 14th day after treatment, the state of growth of the summergrass was visually observed to determine the growth inhibition rate in accordance with the following evaluation standard. The growth inhibition rate (%) (measured value) and the growth inhibition rate (%) (calculated value) calculated by the Colby's formula are shown in Table 1. Growth inhibition rate (%)=0 (equivalent to the non-treated area) to 100 (complete kill)
# [2] = tested on: guinea grass (Panicum maximum Jacq.); experiment: Test Example 4: pot soil treatment, growth inhibition of guinea grass; details: Megathyrsus maximus, dose 10 g/ha, 22nd day after treatment, read-out: Growth inhibition rate (%) of guinea grass, Measured value
# Text: (§1) On the 14th day after treatment, the state of growth of the summergrass was visually observed to determine the growth inhibition rate in accordance with the following evaluation standard. The growth inhibition rate (%) (measured value) and the growth inhibition rate (%) (calculated value) calculated by the Colby's formula are shown in Table 1. Growth inhibition rate (%)=0 (equivalent to the non-treated area) to 100 (complete kill) Upland field soil was put into a 1/160,000 ha pot, and seeds of guinea grass (Panicum maximum Jacq.) were sown. On the next day, predetermined amounts of flazasulfuron and mesotrione were diluted with water (in an amount corresponding to 300 L/ha), and applied for soil treatment by a small sprayer. On the 22nd day after treatment, the state of growth of the guinea grass was visually observed to determine the growth inhibition rate. The growth inhibition rate (%) (measured value) and the growth inhibition rate (%) calculated in the same manner as in Test Example 1 are shown in Table 4.
# [3] = tested on: rostrate sesbania(Sesbania rostrata Bremek. & Oberm.); experiment: Test Example 7: pot soil treatment, growth inhibition of rostrate sesbania; details: 22nd day after treatment, read-out: Growth inhibition rate (%) of rostrate sesbania, Measured value
# [4] = tested on: persian speedwell (Veronica persica Poir.); experiment: Test Example 8: pot soil treatment, growth inhibition of persian speedwell; details: 21st day after treatment, read-out: Growth inhibition rate (%) of persian speedwell, Measured value
# [5] = tested on: persian speedwell (Veronica persica Poiret.); experiment: Test Example 10: pot soil treatment, growth inhibition of persian speedwell; details: dose 30 g/ha, 21st day after treatment, read-out: Growth inhibition rate (%) of persian speedwell, Measured value
# [6] = tested on: common ragweed (Ambrosia artemisiifolia L.); experiment: Test Example 11: pot soil treatment, growth inhibition of common ragweed; details: dose 10 g/ha, 21st day after treatment, read-out: Growth inhibition rate (%) of common ragweed, Measured value
# Text: as §1, with “common ragweed (Ambrosia artemisiifolia L.)” for “guinea grass (Panicum maximum Jacq.)”, “imazapic” for “mesotrione”, “21st” for “22nd”, “common ragweed” for “guinea grass”, “11.” for “4.”
# [7] = tested on: common lespedeza (Lespedeza striata (Thunb.) Hook. et Arn.); experiment: Test Example 12: pot soil treatment, growth inhibition of common lespedeza; details: Kummerowia striata, dose 30 g/ha, 21st day after treatment, read-out: Growth inhibition rate (%) of common lespedeza, Measured value
# Text: as §1, with “common lespedeza (Lespedeza striata (Thunb.) Hook. et Arn.)” for “guinea grass (Panicum maximum Jacq.)”, “imazapic” for “mesotrione”, “21st” for “22nd”, “common lespedeza” for “guinea grass”, “12.” for “4.”
# [8] = tested on: velvetleaf (Abutilon theophrasti MEDIC.); experiment: Test Example 13: pot soil treatment, growth inhibition of velvetleaf; details: dose 30 g/ha, 21st day after treatment, read-out: Growth inhibition rate (%) of velvetleaf, Measured value
# [9] = tested on: velvetleaf (Abutilon theophrasti MEDIC.); experiment: Test Example 14: pot soil treatment, growth inhibition of velvetleaf; details: dose 30 g/ha, 21st day after treatment, read-out: Growth inhibition rate (%) of velvetleaf, Measured value
# Text: as §1, with “velvetleaf (Abutilon theophrasti MEDIC.)” for “guinea grass (Panicum maximum Jacq.)”, “hexazinone” for “mesotrione”, “21st” for “22nd”, “velvetleaf” for “guinea grass”, “14.” for “4.”
compound,measurement,setting,value
"COc1cc(OC)nc(NC(=O)NS(=O)(=O)c2ncccc2C(F)(F)F)n1 [Flazasulfuron, flazasulfuron]",inhibition at 10 g/ha,[1],15%
same,inhibition at 10 g/ha,[2],0%
same,inhibition at 50 g/ha,[3],35%
same,inhibition at 50 g/ha,[4],20%
same,inhibition at 30 g/ha,[5],15%
same,inhibition at 10 g/ha,[6],80%
same,inhibition at 30 g/ha,[7],90%
same,inhibition at 30 g/ha,[8],75%
same,inhibition at 30 g/ha,[9],20%
